{"source": "paper PMC9549282", "about": "“Transcriptome analysis of megalurothrips usitatus (Bagnall) identifies olfactory genes with ligands binding characteristics of MusiOBP1 and MusiCSP1” (Frontiers in Physiology, 2022)", "key": {"MusiCSP1 [1]": {"molecular_target": "T1, MusiCSP1", "T1 construct": "pET32a(+) BamHI/HindIII fusion (about 31 kDa) in E. coli BL21(DE3), Ni-NTA, His-tag fusion cut off with enterokinase", "test": "1-NPN fluorescence displacement", "type": "binding, Megalurothrips usitatus", "conditions": "2 μM protein, 2 μM 1-NPN; ligand 2-16 μM; competitive with 1-NPN", "description": "1-NPN fluorescence displacement on MusiCSP1"}, "MusiCSP1 [2]": {"molecular_target": "T1, MusiCSP1", "test": "fluorescent probe titration, Scatchard", "type": "binding, Megalurothrips usitatus", "conditions": "excitation 337 nm; labelled compound (fluorescent probe)"}}, "data": [{"smiles": "Cc1occc(=O)c1O", "note": "[3-hydroxy-2-Methyl-4-pvrone]", "values": [{"measurement": "Ki", "setting": "MusiCSP1 [1]", "value": 25.4, "unit": "µM"}]}, {"smiles": "c1ccc(Nc2cccc3ccccc23)cc1", "note": "[1-NPN]", "values": [{"measurement": "Kd", "setting": "MusiCSP1 [2]", "value": 8.36, "unit": "µM"}]}, {"smiles": "O=CCCc1ccccc1", "note": "[3-Benzene propanal]", "values": [{"measurement": "Ki", "setting": "MusiCSP1 [1]", "value": 38.6, "unit": "µM"}]}, {"smiles": "CC(C)=CCC/C(C)=C/CO", "note": "[Geraniol]", "values": [{"measurement": "Ki", "setting": "MusiCSP1 [1]", "value": 36.5, "unit": "µM"}]}, {"smiles": "CC(C)=CCCC(C)CCO", "note": "(stereo not drawn) [β-citronellol]", "values": [{"measurement": "Ki", "setting": "MusiCSP1 [1]", "value": 38.6, "unit": "µM"}]}, {"smiles": "CCCCCC(=O)CC", "note": "[3-Octanone]", "values": [{"measurement": "Ki", "setting": "MusiCSP1 [1]", "value": 59.6, "unit": "µM"}]}, {"smiles": "CC(C)=CCC/C(C)=C\\CO", "note": "[Nerol]", "values": [{"measurement": "Ki", "setting": "MusiCSP1 [1]", "value": 80, "unit": "µM"}]}, {"smiles": "COc1ccc(C=O)cc1", "note": "[P-Anisaldehyde]", "values": [{"measurement": "Ki", "setting": "MusiCSP1 [1]", "value": 42.8, "unit": "µM"}]}, {"smiles": "Cc1ccccc1C", "note": "[O-Xylene]", "values": [{"measurement": "Ki", "setting": "MusiCSP1 [1]", "value": 31, "unit": "µM"}]}, {"smiles": "C=C1CC/C=C(\\C)CC[C@@H]2[C@@H]1CC2(C)C", "note": "[β-Caryophyllene]", "values": [{"measurement": "Ki", "setting": "MusiCSP1 [1]", "value": 121, "unit": "µM"}]}]}
